Here are results for 24 molecules from patent publication US20240002375A1, “2-(INDAZOL-5-YL)-6-(PIPERIDIN-4-YL)-1,7-NAPHTHYRIDINE DERIVATIVES AND RELATED COMPOUNDS AS MODULATORS FOR SPLICING NUCLEIC ACIDS AND FOR THE TRE” (REMIX THERAPEUTICS INC., priority 2020, published 2024).

What is called IC50 is the point on the concentration scale where inhibition reaches its midpoint. The AC50 is the concentration giving half of the maximal activity seen.

Holding throughout (type): cell-based
Assay [1] relates to HTT mRNA. In words: Splicing assay (RT-qPCR) of HTT mRNA alternative junction (AJ) and canonical junction (CJ). The note with it: A673 or K562 cells, 24 hours; for IC50: decrease in CJ mRNA, read-out: HTT CJ IC50; for AC50: increase in AJ mRNA, read-out: HTT AJ AC50. An outline of the steps:
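A673 (adherent, 24 h pre-plating) or K562 cells treated 24 h at 37 °C with an 11-point 3-fold dilution series, top 10 uM, DMSO ≤0.25%. Lysates analysed by one-step RT-qPCR for HTT canonical (CJ) and alternative-exon (AJ) junctions, normalised to PPIA (A673) or GAPDH/GUSB (K562).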
(Real-time PCR tracks product formation cycle by cycle.)

The test system of assay [2] is SMN2 CJ mRNA. The experiment in a line: Gene panel canonical junction qPCR splicing assay, SMN2. To be noted: Table 4, read-out: SMN2 IC50 (decrease in CJ mRNA levels). An outline of the steps:
(§1)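 A673 or K562 cells treated with compound; canonical-junction mRNA measured by RT-qPCR with junction-spanning primer/probe sets, normalized to GAPDH, GUSB or PPIA and DMSO (2^−ΔΔCt). IC50 for CJ decrease from 4-parameter logistic fit of percentage response.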

Assay [3] concerns HTT CJ mRNA. In words: Gene panel canonical junction qPCR splicing assay, HTT. To be noted: Table 4, read-out: HTT IC50 (decrease in CJ mRNA levels). An outline of the steps: as §1
Assay [4] deals with Target C CJ mRNA. In words: Gene panel canonical junction qPCR splicing assay, Target C. The note with it: Table 4, read-out: Target C IC50 (decrease in CJ mRNA levels). The procedure, abridged:
as §1

Turning to `Cn1cc2c(O)c(-c3ccc4nc(C5CCNCC5)ccc4n3)ccc2n1` [Compound 105, 2-methyl-5-[6-(piperidin-4-yl)-1,5-naphthyridin-2-yl]indazol-4-ol], the IC50 in assay [1] was greater than 10 µM; in assay [2], 1 to 10 µM; in assay [3] it was greater than 10 µM; in assay [4], 1 to 10 µM. Besides, the AC50 in assay [1] was greater than 10 µM.

For `Cn1cc2c(O)c(-c3cc4ccc(C5CCNCC5)nc4cn3)ccc2n1` [Compound 106, 2-methyl-5-[2-(piperidin-4-yl)-1,7-naphthyridin-6-yl]indazol-4-ol], the IC50 in assay [1] was in the range of 1 to 10 µM; in assay [2], 0.1 to 1 µM; in assay [3], 1 to 10 µM; in assay [4] it was 1 to 10 µM. In assay [1], the AC50 lay in the range of 1 to 10 µM.

`Cn1cc2cc(-c3ncc4nc(C5CCNCC5)ccc4n3)c(O)cc2n1` [Compound 107, 2-methyl-5-[6-(piperidin-4-yl)pyrido[3,2-d]pyrimidin-2-yl]indazol-6-ol]: the IC50 in assay [1] was 0.1 to 1 µM; in assay [2] it was less than 0.1 µM; in assay [3] it was 0.1 to 1 µM; in assay [4], 1 to 10 µM. For the same molecule, the concentration at half-maximal activity (AC50) in assay [1] lay within 0.1 to 1 µM.

As for `Cn1cc2c(O)c(-c3ncc4nc(C5CCNCC5)ccc4n3)ccc2n1` [Compound 108, 2-methyl-5-[6-(piperidin-4-yl)pyrido[3,2-d]pyrimidin-2-yl]indazol-4-ol], the IC50 in assay [1] was 1 to 10 µM; in assay [2], less than 0.1 µM; in assay [3] it was 1 to 10 µM; in assay [4], 1 to 10 µM. The concentration at half-maximal activity (AC50) in assay [1] was 1 to 10 µM.

In the case of `Cn1cc2cc(-c3ccc4cc(C5CCNCC5)ccc4n3)c(O)cc2n1` [Compound 109, 2-methyl-5-[6-(piperidin-4-yl)quinolin-2-yl]indazol-6-ol], the IC50 in assay [1] is less than 0.1 µM; in assay [2], less than 0.1 µM; in assay [3] it was less than 0.1 µM; in assay [4], 0.1 to 1 µM. The AC50 in assay [1] is 0.1 to 1 µM.

As to `CN(C(=O)Nc1cn[nH]c1)c1cc2nc(N3CCNCC3)ccc2cn1` [Compound 110, 1-methyl-1-[2-(piperazin-1-yl)-1,6-naphthyridin-7-yl]-3-(1H-pyrazol-4-yl)urea], the AC50 in assay [1] is greater than 10 µM. In addition, the results for the IC50 in assay [2], in assay [3] and in assay [4] were greater than 10 µM, greater than 10 µM and less than 0.1 µM, respectively.

Regarding `O=C(Nc1cn[nH]c1)Nc1cc2nc(N3CCNCC3)ccc2cn1` [Compound 111, 1-[2-(piperazin-1-yl)-1,6-naphthyridin-7-yl]-3-(1H-pyrazol-4-yl)urea], the IC50 in assay [1], in assay [2], in assay [3] and in assay [4] was greater than 10 µM each time. The AC50 in assay [1] was greater than 10 µM.

Consider `O=C(NCc1ccn[nH]1)Nc1cc2nc(N3CCNCC3)ccc2cn1` [Compound 112, 1-[2-(piperazin-1-yl)-1,6-naphthyridin-7-yl]-3-(2H-pyrazol-3-ylmethyl)urea], for which the IC50 in assay [1], in assay [2], in assay [3] and in assay [4] was greater than 10 µM throughout. Also, the AC50 in assay [1] is greater than 10 µM.

In the case of `Cn1cc2cc(-c3ccc4c(F)c(C5CCNCC5)ccc4n3)c(O)cc2n1` [Compound 115, 5-[5-fluoro-6-(piperidin-4-yl)quinolin-2-yl]-2-methylindazol-6-ol], the 50% inhibitory concentration (IC50) in assay [1] was 1 to 10 µM; in assay [2], less than 0.1 µM; in assay [3], 1 to 10 µM; in assay [4] it was 1 to 10 µM. For the same molecule, the half-maximal activity concentration (AC50) in assay [1] lay within 1 to 10 µM.

As to `CN1CCN(c2ccc3nc(-c4cc5cn(C)nc5cc4O)ccc3n2)CC1` [Compound 116, 2-methyl-5-[6-(4-methylpiperazin-1-yl)-1,5-naphthyridin-2-yl]indazol-6-ol], the IC50 in assay [1] was 1 to 10 µM; in assay [2], less than 0.1 µM; in assay [3] it was 1 to 10 µM; in assay [4], 1 to 10 µM. In addition, the AC50 in assay [1] was in the range of 1 to 10 µM.

Take `CC1CN(c2ccc3nc(-c4cc5cn(C)nc5cc4O)ccc3n2)CCN1` (centres unmarked) [Compound 117, 2-methyl-5-[6-(3-methylpiperazin-1-yl)-1,5-naphthyridin-2-yl]indazol-6-ol]: the concentration for half-maximal inhibition (IC50) in assay [1] was 1 to 10 µM; in assay [2], less than 0.1 µM; in assay [3], 1 to 10 µM; in assay [4] it was 1 to 10 µM. In addition, the AC50 in assay [1] is 1 to 10 µM.

For the molecule `CC1CN(c2ccc3nc(-c4cc5cn(C)nc5cc4O)ccc3n2)CCN1C` (centres unmarked) [Compound 118, 5-[6-(3,4-dimethylpiperazin-1-yl)-1,5-naphthyridin-2-yl]-2-methylindazol-6-ol], the IC50 in assay [1] was 1 to 10 µM; in assay [2], less than 0.1 µM; in assay [3] it was 1 to 10 µM; in assay [4], 1 to 10 µM. Also, the AC50 in assay [1] lay within 1 to 10 µM.

As to `CCC1CN(c2ccc3nc(-c4cc5cn(C)nc5cc4O)ccc3n2)CCN1` (centres unmarked) [Compound 119, 5-[6-(3-ethylpiperazin-1-yl)-1,5-naphthyridin-2-yl]-2-methylindazol-6-ol], the IC50 is 0.1 to 1 µM in assay [1], less than 0.1 µM in assay [2], 0.1 to 1 µM in assay [3] and 1 to 10 µM in assay [4]. For the same molecule, the AC50 in assay [1] was 1 to 10 µM.

For the molecule `Cn1cc2cc(-c3ccc4nc(N5CCNC(C)(C)C5)ccc4n3)c(O)cc2n1` [Compound 120, 5-[6-(3,3-dimethylpiperazin-1-yl)-1,5-naphthyridin-2-yl]-2-methylindazol-6-ol], the concentration for half-maximal inhibition (IC50) is 1 to 10 µM in assay [1], less than 0.1 µM in assay [2], 1 to 10 µM in assay [3] and 1 to 10 µM in assay [4]. The AC50 in assay [1] was 1 to 10 µM.

Turning to `Cn1cc2cc(-c3ccc4nc(N5CCNC6(CC6)C5)ccc4n3)c(O)cc2n1` [Compound 121, 5-(6-[4,7-diazaspiro[2.5]octan-7-yl]-1,5-naphthyridin-2-yl)-2-methylindazol-6-ol], the IC50 in assay [1], in assay [2], in assay [3] and in assay [4] was 1 to 10 µM in each case. Moreover, the concentration at half-maximal activity (AC50) in assay [1] fell in the range of 1 to 10 µM.

Consider `Cn1cc2cc(-c3ccc4nc(N5CC(C)(C)NC(C)(C)C5)ccc4n3)c(O)cc2n1` [Compound 122, 2-methyl-5-[6-(3,3,5,5-tetramethylpiperazin-1-yl)-1,5-naphthyridin-2-yl]indazol-6-ol], for which the 50% inhibitory concentration (IC50) in assay [1] was greater than 10 µM; in assay [2], greater than 10 µM; in assay [3], 1 to 10 µM; in assay [4], greater than 10 µM. In addition, in assay [1], the concentration at half-maximal activity (AC50) was greater than 10 µM.

In the case of `CN1CC2(C1)CN(c1ccc3nc(-c4cc5cn(C)nc5cc4O)ccc3n1)C2` [Compound 123, 2-methyl-5-(6-[6-methyl-2,6-diazaspiro[3.3]heptan-2-yl]-1,5-naphthyridin-2-yl) indazol-6-ol], the IC50 is less than 0.1 µM in assay [1], less than 0.1 µM in assay [2], 0.1 to 1 µM in assay [3] and less than 0.1 µM in assay [4]. Moreover, in assay [1], the AC50 fell in the range of 0.1 to 1 µM.

As to `Cn1cc2cc(-c3ccc4nc(N5CC6(CNC6)C5)ccc4n3)c(O)cc2n1` [Compound 124, 5-(6-[2,6-diazaspiro[3.3]heptan-2-yl]-1,5-naphthyridin-2-yl)-2-methylindazol-6-ol], the half-inhibitory concentration (IC50) in assay [1] was less than 0.1 µM; in assay [2] it was less than 0.1 µM; in assay [3], less than 0.1 µM; in assay [4] it was 0.1 to 1 µM. Besides, the concentration at half-maximal activity (AC50) in assay [1] was in the range of 0.1 to 1 µM.

In the case of `Cn1cc2cc(-c3ccc4nc(N5CCC(N6CCCC6)C5)ccc4n3)c(O)cc2n1` (centres unmarked) [Compound 125, 5-(6-[[1,3 m ? bipyrrolidin]-1 ? yl]-1,5-naphthyridin-2-yl)-2-methylindazol-6-ol], the IC50 in assay [1] was 0.1 to 1 µM; in assay [2] it was less than 0.1 µM; in assay [3], 0.1 to 1 µM; in assay [4], 0.1 to 1 µM. Further, the concentration at half-maximal activity (AC50) in assay [1] fell in the range of 0.1 to 1 µM.

Regarding `CN1CCC(N(C)c2ccc3nc(-c4cc5cn(C)nc5cc4O)ccc3n2)CC1` [Compound 126], the IC50 in assay [1] was 0.1 to 1 µM; in assay [2], less than 0.1 µM; in assay [3] it was 0.1 to 1 µM; in assay [4], less than 0.1 µM. Besides, in assay [1], the half-maximal activity concentration (AC50) lay in the range of 0.1 to 1 µM.

`Cn1cc2cc(-c3ccc4nc(N5CCC(NC(C)(C)C)C5)ccc4n3)c(O)cc2n1` (centres unmarked) [Compound 127, 5-[6-[3-(tert-butylamino)pyrrolidin-1-yl]-1,5-naphthyridin-2-yl]-2-methylindazol-6-ol]: the IC50 in assay [1], in assay [2], in assay [3] and in assay [4] was less than 0.1 µM in each case. Further, the half-maximal activity concentration (AC50) in assay [1] was less than 0.1 µM.

For the molecule `CN(C)C1CCN(c2ccc3nc(-c4cc5cn(C)nc5cc4O)ccc3n2)C1` (centres unmarked) [Compound 129, 5-[6-[3-(dimethylamino)pyrrolidin-1-yl]-1,5-naphthyridin-2-yl]-2-methylindazol-6-ol], the concentration for half-maximal inhibition (IC50) in assay [1] is 0.1 to 1 µM; in assay [2], less than 0.1 µM; in assay [3], 0.1 to 1 µM; in assay [4], 0.1 to 1 µM. The AC50 in assay [1] was in the range of 0.1 to 1 µM.

Take `CN(c1ccc2nc(-c3cc4cn(C)nc4cc3O)ccc2n1)C1CC(C)(C)NC(C)(C)C1` [Compound 130]: the IC50 in assay [1] was greater than 10 µM; in assay [2] it was 0.1 to 1 µM; in assay [3], greater than 10 µM; in assay [4], greater than 10 µM. Besides, in assay [1], the AC50 was greater than 10 µM.

Turning to `CCNC1CCN(c2ccc3nc(-c4cc5cn(C)nc5cc4O)ccc3n2)CC1` [Compound 131, 5-[6-[4-(ethylamino)piperidin-1-yl]-1,5-naphthyridin-2-yl]-2-methylindazol-6-ol], the IC50 was 1 to 10 µM in assay [1], less than 0.1 µM in assay [2], 1 to 10 µM in assay [3] and greater than 10 µM in assay [4]. The concentration at half-maximal activity (AC50) in assay [1] is greater than 10 µM.
